From the NIST ThermoML archive (doi:10.1021/je049652j)
Numbers after ± are expanded uncertainties.

Test: molar heat capacity at constant pressure
Conditions: 101.33 kPa, Liquid

Structure (SMILES)	molar heat capacity at constant pressure (284.15 K)	molar heat capacity at constant pressure (286.65 K)	molar heat capacity at constant pressure (289.15 K)	molar heat capacity at constant pressure (291.65 K)	molar heat capacity at constant pressure (294.15 K)	molar heat capacity at constant pressure (296.65 K)	molar heat capacity at constant pressure (299.15 K)	molar heat capacity at constant pressure (301.65 K)	molar heat capacity at constant pressure (304.15 K)	molar heat capacity at constant pressure (306.65 K)	molar heat capacity at constant pressure (309.15 K)	molar heat capacity at constant pressure (311.65 K)	molar heat capacity at constant pressure (314.15 K)	molar heat capacity at constant pressure (316.65 K)	molar heat capacity at constant pressure (319.15 K)	molar heat capacity at constant pressure (321.65 K)	molar heat capacity at constant pressure (324.15 K)	molar heat capacity at constant pressure (326.65 K)	molar heat capacity at constant pressure (329.15 K)	molar heat capacity at constant pressure (331.65 K)	also measured
CCBr [bromoethane]	105.63 ± 0.53 J/K/mol	105.91 ± 0.53 J/K/mol	106.14 ± 0.53 J/K/mol	106.42 ± 0.53 J/K/mol	106.75 ± 0.53 J/K/mol	107.09 ± 0.54 J/K/mol	107.42 ± 0.54 J/K/mol														molar heat capacity at constant pressure (269.15 K): 104.07 ± 0.52 J/K/mol; molar heat capacity at constant pressure (271.65 K): 104.37 ± 0.52 J/K/mol; molar heat capacity at constant pressure (274.15 K): 104.6 ± 0.52 J/K/mol; molar heat capacity at constant pressure (276.65 K): 104.85 ± 0.52 J/K/mol; molar heat capacity at constant pressure (279.15 K): 105.14 ± 0.53 J/K/mol; molar heat capacity at constant pressure (281.65 K): 105.42 ± 0.53 J/K/mol
CCCCl [1-chloropropane]	128.63 ± 0.64 J/K/mol	128.99 ± 0.64 J/K/mol	129.53 ± 0.65 J/K/mol	130.1 ± 0.65 J/K/mol	130.47 ± 0.65 J/K/mol	130.95 ± 0.65 J/K/mol	131.33 ± 0.66 J/K/mol	131.88 ± 0.66 J/K/mol	132.37 ± 0.66 J/K/mol	132.94 ± 0.66 J/K/mol	133.4 ± 0.67 J/K/mol	133.92 ± 0.67 J/K/mol	134.38 ± 0.67 J/K/mol								
CCCCCCBr [1-bromohexane]	215.54 ± 1.1 J/K/mol	216.29 ± 1.1 J/K/mol	217.08 ± 1.1 J/K/mol	217.78 ± 1.1 J/K/mol	218.54 ± 1.1 J/K/mol	219.26 ± 1.1 J/K/mol	219.99 ± 1.1 J/K/mol	220.68 ± 1.1 J/K/mol	221.38 ± 1.1 J/K/mol	222.22 ± 1.1 J/K/mol	222.98 ± 1.1 J/K/mol	223.79 ± 1.1 J/K/mol	224.63 ± 1.1 J/K/mol	225.37 ± 1.1 J/K/mol	226.2 ± 1.1 J/K/mol	227.01 ± 1.1 J/K/mol	227.86 ± 1.1 J/K/mol	228.67 ± 1.1 J/K/mol	229.55 ± 1.1 J/K/mol	230.39 ± 1.1 J/K/mol	molar heat capacity at constant pressure (334.15 K): 231.21 ± 1.2 J/K/mol; molar heat capacity at constant pressure (336.65 K): 231.59 ± 1.2 J/K/mol; molar heat capacity at constant pressure (339.15 K): 233.25 ± 1.2 J/K/mol; molar heat capacity at constant pressure (341.65 K): 233.77 ± 1.2 J/K/mol; molar heat capacity at constant pressure (344.15 K): 234.73 ± 1.2 J/K/mol; molar heat capacity at constant pressure (346.65 K): 235.64 ± 1.2 J/K/mol; molar heat capacity at constant pressure (349.15 K): 236.55 ± 1.2 J/K/mol; molar heat capacity at constant pressure (351.65 K): 237.39 ± 1.2 J/K/mol; molar heat capacity at constant pressure (353.15 K): 237.85 ± 1.2 J/K/mol
CCCCCCl [1-chloropentane]	184.57 ± 0.92 J/K/mol	185.29 ± 0.93 J/K/mol	185.95 ± 0.93 J/K/mol	186.52 ± 0.93 J/K/mol	187.16 ± 0.94 J/K/mol	187.66 ± 0.94 J/K/mol	188.46 ± 0.94 J/K/mol	189.19 ± 0.95 J/K/mol	189.81 ± 0.95 J/K/mol	190.32 ± 0.95 J/K/mol	190.99 ± 0.95 J/K/mol	191.89 ± 0.96 J/K/mol	192.65 ± 0.96 J/K/mol	193.22 ± 0.97 J/K/mol	194.09 ± 0.97 J/K/mol	194.69 ± 0.97 J/K/mol	195.06 ± 0.98 J/K/mol	196.14 ± 0.98 J/K/mol	196.99 ± 0.98 J/K/mol	197.64 ± 0.99 J/K/mol	molar heat capacity at constant pressure (334.15 K): 198.46 ± 0.99 J/K/mol; molar heat capacity at constant pressure (336.65 K): 199.23 ± 1 J/K/mol; molar heat capacity at constant pressure (339.15 K): 199.92 ± 1 J/K/mol; molar heat capacity at constant pressure (341.65 K): 200.41 ± 1 J/K/mol; molar heat capacity at constant pressure (344.15 K): 201.19 ± 1 J/K/mol; molar heat capacity at constant pressure (346.65 K): 201.73 ± 1 J/K/mol; molar heat capacity at constant pressure (349.15 K): 202.54 ± 1 J/K/mol; molar heat capacity at constant pressure (351.65 K): 203.57 ± 1 J/K/mol; molar heat capacity at constant pressure (353.15 K): 204.24 ± 1 J/K/mol
